The text below walks through data of PubChem BioAssay (NCI).

Some test systems named below: HT29 colon; OVCAR-5 ovarian; HOP-62 NSCLC; DU-145 prostate; 786-0 renal; HOP-92 NSCLC; M14 melanoma; ACHN renal; RXF 393 renal; K-562 leukemia.
Experiment in all cases: NCI tumour cell line growth inhibition, 48 h

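48-hour exposure; five concentrations; linearly interpolated endpoints. The concentration for 50% growth inhibition is given as GI50. The concentration for full growth arrest is given as TGI.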 Where a SMILES comes first, the peptide text is derived from it. The star is where a group is joined. Boc = CC(C)(C)OC(=O)*

Turning to `CCOC(=O)C1(C(=O)OCC)CC(=O)[C@@]2(C1)OCC[C@H]1OC(=O)C[C@H]12`, the TGI with HT29 colon, in the experiment on OVCAR-5 ovarian, in the experiment with HOP-62 NSCLC, in the experiment with DU-145 prostate, in the experiment with 786-0 renal and in the experiment on HOP-92 NSCLC was more than 100 µM each time. Further, the TGI with M14 melanoma and with ACHN renal was more than 100 µM in each case.
Take `CC(NC(=O)C(N)CC(=O)O)NC(=O)N1CCOCC1` (configuration not stated): the TGI in the experiment with RXF 393 renal, with HT29 colon, in the experiment with OVCAR-5 ovarian, in the experiment with HOP-62 NSCLC, in the experiment on DU-145 prostate and with 786-0 renal was more than 100 µM each time. In addition, the TGI in the experiment with K-562 leukemia, in the experiment on M14 melanoma and with ACHN renal was more than 100 µM each time.
On to `COc1cc(/C=C/C(=O)N[C@@H]2C(=O)N3[C@@H]2SC(C)(C)[C@@H]3C(=O)O)cc(OC)c1OC`, for which the TGI in the experiment with RXF 393 renal, in the experiment with HT29 colon, in the experiment on OVCAR-5 ovarian, in the experiment on DU-145 prostate, with 786-0 renal and in the experiment on HOP-92 NSCLC was more than 100 µM each time. Also, the TGI in the experiment with K-562 leukemia, in the experiment with M14 melanoma and with ACHN renal was more than 100 µM throughout.
Regarding `O=C1/C(=C/c2cccs2)NC(=S)N1CN1CCOCC1`, the TGI in the experiment on HT29 colon, with OVCAR-5 ovarian, in the experiment on HOP-62 NSCLC, in the experiment with DU-145 prostate, in the experiment with 786-0 renal and in the experiment with HOP-92 NSCLC was more than 100 µM in each case. Moreover, the TGI in the experiment on K-562 leukemia, with M14 melanoma and in the experiment with ACHN renal was more than 100 µM in each case.
Turning to `Fc1cc(-c2ncc(Cl)cc2Cl)c2cccccc1-2`, the TGI in the experiment with RXF 393 renal, in the experiment on HT29 colon, with OVCAR-5 ovarian, in the experiment with HOP-62 NSCLC, in the experiment on DU-145 prostate and with 786-0 renal was more than 100 µM in each case. For the same compound, the TGI with M14 melanoma and in the experiment with ACHN renal was more than 100 µM throughout.
In the case of `C=Cc1cc2c(cc1O)CC[C@@H]1[C@@H]2CC[C@]2(C)[C@@H](O)CC[C@@H]12`, the TGI with RXF 393 renal was 8.92 µM; in the experiment with HT29 colon, 29.5 µM; in the experiment on OVCAR-5 ovarian, 41.3 µM; in the experiment with HOP-62 NSCLC, 19.8 µM; with DU-145 prostate it was 16.6 µM; with 786-0 renal, 14.3 µM. In addition, the results for the TGI in the experiment with K-562 leukemia, in the experiment with M14 melanoma and with ACHN renal were 20.4 µM, 17.7 µM and 21.1 µM, respectively. In addition, the values for the GI50 in the experiment on HOP-62 NSCLC and in the experiment on DU-145 prostate were 5.04 µM and 4.41 µM, respectively.
`O=c1c(O)c(-c2cc(O)c(O)cc2O)oc2cc(O)c(C3OC(CO)C(O)C(O)C3O)c(O)c12` (configuration not stated): the TGI in the experiment with HT29 colon, in the experiment on OVCAR-5 ovarian, in the experiment on HOP-62 NSCLC, in the experiment with DU-145 prostate, in the experiment with 786-0 renal and with HOP-92 NSCLC was more than 100 µM in each case. Further, the TGI in the experiment on K-562 leukemia, in the experiment with M14 melanoma and in the experiment with ACHN renal was more than 100 µM throughout.
On to `COC(=O)c1cc2c3c(cc(O)c2[nH]1)N(C(=O)C1Cc2cc(OC)c(OC)c(OC)c2N1)CC3CCl` (configuration not stated), for which the GI50 in the experiment with HT29 colon and in the experiment on DU-145 prostate was less than 0.01 µM throughout. For the same compound, the TGI with HT29 colon is less than 0.01 µM; in the experiment on DU-145 prostate, 0.106 µM.
Consider `CC(C)CC1[C@@H](OCc2ccccc2)COS(=O)(=O)N1Cc1ccccc1` (some centres not stated), for which the TGI with HT29 colon, in the experiment with OVCAR-5 ovarian, in the experiment on HOP-62 NSCLC, in the experiment with DU-145 prostate, with 786-0 renal and with HOP-92 NSCLC was more than 100 µM in each case. The TGI in the experiment with K-562 leukemia, in the experiment with M14 melanoma and in the experiment on ACHN renal was more than 100 µM each time.
For the compound `CCOC(=O)COc1c(OC)cc(C2C3=C(COC3=O)Oc3cc4c(cc32)OCO4)cc1OC` (configuration not stated), the TGI is 8.29 µM in the experiment with HT29 colon; more than 100 µM with OVCAR-5 ovarian; more than 100 µM in the experiment on HOP-62 NSCLC; more than 29.1 µM in the experiment with DU-145 prostate; 15.5 µM in the experiment on 786-0 renal; more than 45.1 µM in the experiment with HOP-92 NSCLC. Besides, the TGI is 12.2 µM in the experiment on K-562 leukemia, more than 100 µM in the experiment on M14 melanoma and more than 45.8 µM in the experiment on ACHN renal.
With `Nn1c(SCC(=O)NCc2ccccc2)nc2ccccc2c1=O`, the TGI in the experiment on RXF 393 renal, in the experiment with HT29 colon, in the experiment on OVCAR-5 ovarian, with DU-145 prostate, in the experiment with 786-0 renal and with HOP-92 NSCLC was more than 100 µM in each case. Also, the TGI in the experiment with K-562 leukemia, in the experiment on M14 melanoma and in the experiment on ACHN renal was more than 100 µM each time.
Turning to `NC(Cc1c[nH]c2ccccc12)C(=O)O` (configuration not stated), the TGI in the experiment on RXF 393 renal was more than 300 µM; with HT29 colon it was more than 300 µM; with OVCAR-5 ovarian, more than 300 µM; in the experiment on HOP-62 NSCLC it was more than 300 µM; in the experiment on HOP-92 NSCLC, more than 300 µM; in the experiment on K-562 leukemia, more than 189 µM.
As for `CC12CC3(O)OC(O1)C1(COC(=O)c4ccccc4)C3CC21OC1OC(CO)C(O)C(O)C1O` (configuration not stated), the TGI with RXF 393 renal, with HT29 colon, in the experiment with OVCAR-5 ovarian, in the experiment on HOP-62 NSCLC, in the experiment with DU-145 prostate and with 786-0 renal was more than 100 µM each time. The TGI in the experiment on HOP-92 NSCLC, with M14 melanoma and in the experiment with ACHN renal was more than 100 µM in each case.
As to `CCOCC(NC(=O)C(CC(C)C)NC(=O)OC(C)(C)C)C(N)=O` (stereo not drawn) (Boc-Leu-Ser(Et)-NH2; configuration not given here), the TGI with RXF 393 renal, in the experiment with HT29 colon, in the experiment on OVCAR-5 ovarian, in the experiment with HOP-62 NSCLC, in the experiment with DU-145 prostate and in the experiment on 786-0 renal was more than 100 µM in each case. In addition, the TGI in the experiment with HOP-92 NSCLC, with M14 melanoma and in the experiment on ACHN renal was more than 100 µM each time.
`N#C[C@@]12CCCC(=O)[C@@H]1[C@H]1CCC[C@H]12`: the TGI was determined as 52.4 µM in the experiment with HT29 colon; 25.7 µM in the experiment with OVCAR-5 ovarian; 30.8 µM in the experiment with HOP-62 NSCLC; 28.8 µM with DU-145 prostate; 29.4 µM in the experiment on 786-0 renal; 38 µM in the experiment on HOP-92 NSCLC. The results for the TGI with K-562 leukemia, in the experiment on M14 melanoma and with ACHN renal were 37.7 µM, 30.2 µM and 33.1 µM, respectively.
